# Laboratory results taken from patent US9809623B2, “α4β7 peptide monomer and dimer antagonists” (Protagonist Therapeutics, Inc., priority 2014, dated 2017).
# Numbered stars: 1 amine (or outer) side, 2 acyl side, 3 side chain; on linkers, the order of the positions; unused ones are H or OH. Bridge positions count the residues as written; N and C are the ends. Square brackets hold non-standard residues; d marks the D form. Peptide text beside a SMILES is read from it. I, II: the chains in the order shown. 2Nal = N[C@@H](Cc1ccc2ccccc2c1)C(=O)O; Diglycolyl = O=C(COCC(=O)[*:2])[*:1]; NMeR = CN[C@@H](CCCNC(=N)N)C(=O)O; Pen = CC(C)(S)[C@H](N)C(=O)O; Dab = NCC[C@H](N)C(=O)O; Dap = NC[C@H](N)C(=O)O
# Biological target: α4β7 (Homo sapiens, UniProt P13612+P26010)
# Assay: α4β7-MAdCAM Cell Adhesion Assay (RPMI 8866 human cells)
# Type: cell-based
# Set-up: host or cells: RPMI 8866 human B lymphoblastoid cells
# Conditions: Table 3-B, Potency (α4β7); range classes; read-out: α4β7 cell (Hu) IC50
# Experimental: RPMI 8866 human cells (Sigma #95041316) were cultured in RPMI 1640 HEPES medium (Invitrogen #22400-089) supplemented with 10% serum (Fetal Bovine Serum, Invitrogen #16140-071), 1 mM sodium pyruvate (Invitrogen #11360-070), 2 mM L-glutamine (Invitrogen #25030-081) and Penicillin-Streptomycin (Invitrogen #15140-122) at 100 units of penicillin and 100 μg of streptomycin per ml. The cells were washed two times in DMEM medium (ATCC #30-2002) supplemented with 0.1% BSA, 10 mM HEPES pH 7 and 1 mM MnCl2. The cells were re-suspended in supplemented DMEM medium at a density of 4×10^6 cells/ml.
# A Nunc MaxiSorp plate was coated with rh MAdCAM-1/Fc Chimera (R&D #6065-MC) at 200 ng per well in 50 ul per well in 1×PBS and incubated at 4° C. overnight. The solution was then removed by shaking, blocked with 250 ul per well PBS containing 1% BSA, and incubated at 37° C. for 1 hr. The solution was removed by shaking. Peptides were diluted by serial dilution in a final volume of 50 ul per well (2× concentration). To each well, 50 ul of cells (200,000 cells) were added and the plate was incubated at 37° C., 5% CO2 for 30-45 min to allow cell adhesion. The wells were washed manually three times (100 ul per wash) with supplemented DMEM. After the final wash, 100 ul/well of supplemented DMEM and 10 ul/well of MTT reagent (ATTC cat#30-1010K) were added. The plate was incubated at 37° C., 5% CO2 for 2-3 hrs until a purple precipitate was visible. 100 ul of Detergent Reagent (ATTC cat#30-1010K) was added to each well. The plate was covered from the light, wrapped in Parafilm to prevent evaporation, and left overnight at room temperature in the dark. The plate was shaken for 5 min and the absorbance at 570 nm was measured. To calculate the dose response, the absorbance value of control wells not containing cells was subtracted from each test well.
# α4β7, sequence (P13612 34-1032): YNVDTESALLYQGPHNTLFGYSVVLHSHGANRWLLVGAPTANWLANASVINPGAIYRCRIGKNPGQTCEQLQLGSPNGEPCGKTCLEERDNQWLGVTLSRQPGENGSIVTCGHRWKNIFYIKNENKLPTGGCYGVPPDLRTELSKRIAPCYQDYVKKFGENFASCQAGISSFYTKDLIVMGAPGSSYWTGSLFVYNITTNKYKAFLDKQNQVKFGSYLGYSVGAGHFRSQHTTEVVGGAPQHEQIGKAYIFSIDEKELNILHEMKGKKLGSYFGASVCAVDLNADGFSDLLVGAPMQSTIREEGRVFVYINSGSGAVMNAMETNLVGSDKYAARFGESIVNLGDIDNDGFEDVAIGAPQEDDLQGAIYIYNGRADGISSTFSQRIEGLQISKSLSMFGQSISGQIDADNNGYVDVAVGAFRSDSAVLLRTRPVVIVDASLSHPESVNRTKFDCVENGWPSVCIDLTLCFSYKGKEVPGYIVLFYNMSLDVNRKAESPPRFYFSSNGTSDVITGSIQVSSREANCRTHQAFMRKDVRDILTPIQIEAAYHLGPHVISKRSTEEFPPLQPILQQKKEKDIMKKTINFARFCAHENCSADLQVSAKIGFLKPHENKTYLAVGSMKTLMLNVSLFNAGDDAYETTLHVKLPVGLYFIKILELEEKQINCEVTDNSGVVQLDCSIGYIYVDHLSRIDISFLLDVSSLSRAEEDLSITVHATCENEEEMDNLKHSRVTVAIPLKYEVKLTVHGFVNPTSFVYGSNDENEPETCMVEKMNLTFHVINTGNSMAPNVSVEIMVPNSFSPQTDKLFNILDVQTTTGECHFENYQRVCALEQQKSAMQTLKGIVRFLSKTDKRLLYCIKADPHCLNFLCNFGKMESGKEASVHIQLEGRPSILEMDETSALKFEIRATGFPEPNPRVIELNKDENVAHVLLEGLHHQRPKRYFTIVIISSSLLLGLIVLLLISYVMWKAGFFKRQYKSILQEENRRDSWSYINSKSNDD
# α4β7, sequence (P26010 20-798): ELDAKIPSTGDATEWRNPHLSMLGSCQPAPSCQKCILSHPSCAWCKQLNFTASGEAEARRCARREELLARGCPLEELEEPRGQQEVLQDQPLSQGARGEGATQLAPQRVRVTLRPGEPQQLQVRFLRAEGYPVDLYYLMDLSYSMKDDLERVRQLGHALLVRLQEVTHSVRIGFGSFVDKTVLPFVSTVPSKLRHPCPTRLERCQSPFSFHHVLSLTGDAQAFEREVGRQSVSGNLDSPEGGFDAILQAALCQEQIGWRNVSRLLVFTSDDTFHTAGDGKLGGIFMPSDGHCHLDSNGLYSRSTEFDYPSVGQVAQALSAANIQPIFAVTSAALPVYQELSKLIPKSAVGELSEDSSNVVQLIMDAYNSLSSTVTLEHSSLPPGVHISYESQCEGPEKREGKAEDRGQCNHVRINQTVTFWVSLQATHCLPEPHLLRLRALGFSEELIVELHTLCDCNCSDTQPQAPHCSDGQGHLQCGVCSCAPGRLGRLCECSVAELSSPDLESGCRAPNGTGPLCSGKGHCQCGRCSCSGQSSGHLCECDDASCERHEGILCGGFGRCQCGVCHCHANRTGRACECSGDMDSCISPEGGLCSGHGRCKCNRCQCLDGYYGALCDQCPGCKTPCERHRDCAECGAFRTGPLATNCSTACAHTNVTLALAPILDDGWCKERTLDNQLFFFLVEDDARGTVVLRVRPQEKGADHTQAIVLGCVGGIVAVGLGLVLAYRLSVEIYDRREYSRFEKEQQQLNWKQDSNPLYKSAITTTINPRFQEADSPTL
row,Structure (SMILES),IC50 [nM]
1,CC(=O)N[C@@H]1C(=O)N(C)[C@@H](CCCNC(=N)N)C(=O)N[C@@H](CO)C(=O)N[C@@H](CC(=O)O)C(=O)N[C@@H]([C@@H](C)O)C(=O)N[C@@H](CC(C)C)C(=O)N[C@H](C(=O)N[C@@H](Cc2c[nH]c3ccccc23)C(=O)N[C@@H](CCC(=O)O)C(=O)N[C@@H](CN)C(N)=O)C(C)(C)SSC1(C)C [compound 59] (Ac-[Pen][NMeR]SDTL[Pen]WE[Dap]-NH2; disulfide 1-7),10000 to 100000
2,CC(=O)N[C@@H]1C(=O)N(C)[C@@H](CCCNC(=N)N)C(=O)N[C@@H](CO)C(=O)N[C@@H](CC(=O)O)C(=O)N[C@@H]([C@@H](C)O)C(=O)N[C@@H](CC(C)C)C(=O)N[C@H](C(=O)N[C@@H](Cc2c[nH]c3ccccc23)C(=O)N[C@@H](CCC(=O)O)C(=O)N[C@@H](CCN)C(N)=O)C(C)(C)SSC1(C)C [compound 61] (Ac-[Pen][NMeR]SDTL[Pen]WE[Dab]-NH2; disulfide 1-7),1000 to 10000
3,CC(=O)N[C@@H]1C(=O)N(C)[C@@H](CCCNC(=N)N)C(=O)N[C@@H](CO)C(=O)N[C@@H](CC(=O)O)C(=O)N[C@@H]([C@@H](C)O)C(=O)N[C@@H](CC(C)C)C(=O)N[C@H](C(=O)N[C@@H](Cc2c[nH]c3ccccc23)C(=O)N[C@H](CCC(=O)O)C(=O)N[C@H](CCCCNC(=O)CN(CC(=O)NCCCC[C@@H](NC(=O)[C@@H](CCC(=O)O)NC(=O)[C@H](Cc2c[nH]c3ccccc23)NC(=O)[C@H]2NC(=O)[C@H](CC(C)C)NC(=O)[C@H]([C@@H](C)O)NC(=O)[C@H](CC(=O)O)NC(=O)[C@H](CO)NC(=O)[C@H](CCCNC(=N)N)N(C)C(=O)[C@@H](NC(C)=O)C(C)(C)SSC2(C)C)C(N)=O)C(=O)CCN)C(N)=O)C(C)(C)SSC1(C)C [compound 70],25 to 50
4,CC(=O)N[C@@H]1C(=O)N(C)[C@@H](CCCNC(=N)N)C(=O)N[C@@H](CO)C(=O)N[C@@H](CC(=O)O)C(=O)N[C@@H]([C@@H](C)O)C(=O)N[C@@H](CC(C)C)C(=O)N[C@H](C(=O)N[C@@H](Cc2c[nH]c3ccccc23)C(=O)N[C@H](CCC(=O)O)C(=O)N[C@H](CCCCNC(=O)CN(CC(=O)NCCCC[C@@H](NC(=O)[C@@H](CCC(=O)O)NC(=O)[C@H](Cc2c[nH]c3ccccc23)NC(=O)[C@H]2NC(=O)[C@H](CC(C)C)NC(=O)[C@H]([C@@H](C)O)NC(=O)[C@H](CC(=O)O)NC(=O)[C@H](CO)NC(=O)[C@H](CCCNC(=N)N)N(C)C(=O)[C@@H](NC(C)=O)C(C)(C)SSC2(C)C)C(N)=O)C(=O)CCNC(=O)CCCCC2SCC3NC(=O)NC32)C(N)=O)C(C)(C)SSC1(C)C (some centres unmarked) [compound 71],25 to 50
5,CC(=O)N[C@@H]1C(=O)N(C)[C@@H](CCCNC(=N)N)C(=O)N[C@@H](CO)C(=O)N[C@@H](CC(=O)O)C(=O)N[C@@H]([C@@H](C)O)C(=O)N[C@@H](CC(C)C)C(=O)N[C@H](C(=O)N[C@@H](Cc2ccc3ccccc3c2)C(=O)N[C@@H](CCC(=O)O)C(N)=O)C(C)(C)SSC1(C)C [compound 75] (Ac-[Pen][NMeR]SDTL[Pen][2Nal]E-NH2; disulfide 1-7),50 to 100
6,"CC(=O)N[C@@H]1C(=O)N(C)[C@@H](CCCNC(=N)N)C(=O)N[C@@H](CO)C(=O)N[C@@H](CC(=O)O)C(=O)N[C@@H]([C@@H](C)O)C(=O)N[C@@H](CC(C)C)C(=O)N[C@H](C(=O)N[C@@H](Cc2c[nH]c3ccccc23)C(=O)N[C@H](CCCCNC(=O)COCC(=O)NCCCC[C@@H](NC(=O)[C@H](Cc2c[nH]c3ccccc23)NC(=O)[C@H]2NC(=O)[C@H](CC(C)C)NC(=O)[C@H]([C@@H](C)O)NC(=O)[C@H](CC(=O)O)NC(=O)[C@H](CO)NC(=O)[C@H](CCCNC(=N)N)N(C)C(=O)[C@@H](NC(C)=O)C(C)(C)SSC2(C)C)C(=O)O)C(=O)O)C(C)(C)SSC1(C)C [compound 76] (I: Ac-[Pen][NMeR]SDTL[Pen]W[dK]-OH / II: Ac-[Pen][NMeR]SDTL[Pen]W[dK]-OH; disulfide I:1-I:7, II:1-II:7; linker I:9-II:9 via Diglycolyl)",10 to 25
7,"CC(=O)N[C@@H]1C(=O)N(C)[C@@H](CCCNC(=N)N)C(=O)N[C@@H](CO)C(=O)N[C@@H](CC(=O)O)C(=O)N[C@@H]([C@@H](C)O)C(=O)N[C@@H](CC(C)C)C(=O)N[C@H](C(=O)N[C@@H](Cc2c[nH]c3ccccc23)C(=O)N[C@@H](CCC(N)=O)C(=O)N[C@H](CCCCNC(=O)COCC(=O)NCCCC[C@@H](NC(=O)[C@H](CCC(N)=O)NC(=O)[C@H](Cc2c[nH]c3ccccc23)NC(=O)[C@H]2NC(=O)[C@H](CC(C)C)NC(=O)[C@H]([C@@H](C)O)NC(=O)[C@H](CC(=O)O)NC(=O)[C@H](CO)NC(=O)[C@H](CCCNC(=N)N)N(C)C(=O)[C@@H](NC(C)=O)C(C)(C)SSC2(C)C)C(N)=O)C(N)=O)C(C)(C)SSC1(C)C [compound 82] (I: Ac-[Pen][NMeR]SDTL[Pen]WQ[dK]-NH2 / II: Ac-[Pen][NMeR]SDTL[Pen]WQ[dK]-NH2; disulfide I:1-I:7, II:1-II:7; linker I:10-II:10 via Diglycolyl)",50 to 100
8,"CC(=O)N[C@@H]1C(=O)N(C)[C@@H](CCCNC(=N)N)C(=O)N[C@@H](CO)C(=O)N[C@@H](CC(=O)O)C(=O)N[C@@H]([C@@H](C)O)C(=O)N[C@@H](CC(C)C)C(=O)N[C@H](C(=O)N[C@@H](Cc2c[nH]c3ccccc23)C(=O)N[C@@H](CC(N)=O)C(=O)N[C@H](CCCCNC(=O)COCC(=O)NCCCC[C@@H](NC(=O)[C@H](CC(N)=O)NC(=O)[C@H](Cc2c[nH]c3ccccc23)NC(=O)[C@H]2NC(=O)[C@H](CC(C)C)NC(=O)[C@H]([C@@H](C)O)NC(=O)[C@H](CC(=O)O)NC(=O)[C@H](CO)NC(=O)[C@H](CCCNC(=N)N)N(C)C(=O)[C@@H](NC(C)=O)C(C)(C)SSC2(C)C)C(N)=O)C(N)=O)C(C)(C)SSC1(C)C [compound 83] (I: Ac-[Pen][NMeR]SDTL[Pen]WN[dK]-NH2 / II: Ac-[Pen][NMeR]SDTL[Pen]WN[dK]-NH2; disulfide I:1-I:7, II:1-II:7; linker I:10-II:10 via Diglycolyl)",50 to 100
9,"CC(=O)N[C@@H]1C(=O)N(C)[C@@H](CCCNC(=N)N)C(=O)N[C@@H](CO)C(=O)N[C@@H](CC(=O)O)C(=O)N[C@@H]([C@@H](C)O)C(=O)N[C@@H](CC(C)C)C(=O)N[C@H](C(=O)N[C@@H](Cc2c[nH]c3ccccc23)C(=O)N[C@@H](Cc2ccccc2)C(=O)N[C@H](CCCCNC(=O)COCC(=O)NCCCC[C@@H](NC(=O)[C@H](Cc2ccccc2)NC(=O)[C@H](Cc2c[nH]c3ccccc23)NC(=O)[C@H]2NC(=O)[C@H](CC(C)C)NC(=O)[C@H]([C@@H](C)O)NC(=O)[C@H](CC(=O)O)NC(=O)[C@H](CO)NC(=O)[C@H](CCCNC(=N)N)N(C)C(=O)[C@@H](NC(C)=O)C(C)(C)SSC2(C)C)C(N)=O)C(N)=O)C(C)(C)SSC1(C)C [compound 85] (I: Ac-[Pen][NMeR]SDTL[Pen]WF[dK]-NH2 / II: Ac-[Pen][NMeR]SDTL[Pen]WF[dK]-NH2; disulfide I:1-I:7, II:1-II:7; linker I:10-II:10 via Diglycolyl)",< 10
10,"CC(=O)N[C@@H]1C(=O)N(C)[C@@H](CCCNC(=N)N)C(=O)N[C@@H](CO)C(=O)N[C@@H](CC(=O)O)C(=O)N[C@@H]([C@@H](C)O)C(=O)N[C@@H](CC(C)C)C(=O)N[C@H](C(=O)N[C@@H](Cc2c[nH]c3ccccc23)C(=O)N[C@@H](CC(=O)O)C(=O)N[C@H](CCCCNC(=O)COCC(=O)NCCCC[C@@H](NC(=O)[C@H](CC(=O)O)NC(=O)[C@H](Cc2c[nH]c3ccccc23)NC(=O)[C@H]2NC(=O)[C@H](CC(C)C)NC(=O)[C@H]([C@@H](C)O)NC(=O)[C@H](CC(=O)O)NC(=O)[C@H](CO)NC(=O)[C@H](CCCNC(=N)N)N(C)C(=O)[C@@H](NC(C)=O)C(C)(C)SSC2(C)C)C(N)=O)C(N)=O)C(C)(C)SSC1(C)C [compound 87] (I: Ac-[Pen][NMeR]SDTL[Pen]WD[dK]-NH2 / II: Ac-[Pen][NMeR]SDTL[Pen]WD[dK]-NH2; disulfide I:1-I:7, II:1-II:7; linker I:10-II:10 via Diglycolyl)",25 to 50
11,"CC(=O)N[C@@H]1C(=O)N(C)[C@@H](CCCNC(=N)N)C(=O)N[C@@H](CO)C(=O)N[C@@H](CC(=O)O)C(=O)N[C@@H]([C@@H](C)O)C(=O)N[C@@H](CC(C)C)C(=O)N[C@H](C(=O)N[C@@H](Cc2c[nH]c3ccccc23)C(=O)N[C@H](Cc2ccccc2)C(=O)N[C@H](CCCCNC(=O)COCC(=O)NCCCC[C@@H](NC(=O)[C@@H](Cc2ccccc2)NC(=O)[C@H](Cc2c[nH]c3ccccc23)NC(=O)[C@H]2NC(=O)[C@H](CC(C)C)NC(=O)[C@H]([C@@H](C)O)NC(=O)[C@H](CC(=O)O)NC(=O)[C@H](CO)NC(=O)[C@H](CCCNC(=N)N)N(C)C(=O)[C@@H](NC(C)=O)C(C)(C)SSC2(C)C)C(N)=O)C(N)=O)C(C)(C)SSC1(C)C [compound 91] (I: Ac-[Pen][NMeR]SDTL[Pen]W[dF][dK]-NH2 / II: Ac-[Pen][NMeR]SDTL[Pen]W[dF][dK]-NH2; disulfide I:1-I:7, II:1-II:7; linker I:10-II:10 via Diglycolyl)",100 to 500
